Values of other authors in US7378261B2, “Method for preparing para-hydroxystyrene by biocatalytic decarboxylation of para-hydroxycinnamic acid in a biphasic reaction medium” (E.I. du Pont de Nemours and Company, priority 2003, dated 2008).

Conditions: logarithm of solvent's partition coefficient in standard octanol:water mixture

| log P | SMILES |
| --- | --- |
| 3.22 | CCCCCCCC(C)O (centres unmarked) [2-nonanol] |
| 3.71 | CCCCCCC(O)CCC (centres unmarked) [4-decanol] |
| 3.71 | CCCCCCCCC(C)O (centres unmarked) [2-decanol] |
| 3.9 | CCCCCC [hexane] |
| 2.24 | CCCCCC(C)O (centres unmarked) [2-heptanol] |

The remaining lines, values behind:

| SMILES | log P |
| --- | --- |
| CCCCCCC(=O)CCC [4-decanone] | 3.2 |
| CCCCCCCCCC(C)=O [2-undecanone] | 4.21 |
| CCCCCCCC(=O)CC [3-decanone] | 3.2 |
